# Test system: BMDM
# Test: Cytotoxicity against mouse Bone marrow macrophage at 10 uM measured after 72 hrs by MTT assay
# Type: toxicity, cell-based
# Details: not given
row,Structure (SMILES),Activity
1,C/C=C(\C)C(=O)OC[C@]12[C@H]3CCC[C@@]1(O)CO[C@@]2(O)C[C@H](C)[C@@]3(C)CCC1=CC(=O)OC1,Non-Toxic
2,C/C=C(\C)C(=O)O[C@@H](C[C@@]1(C)[C@H](C)C[C@H](OC(C)=O)[C@]2(COC(C)=O)[C@@H]1CCC[C@]2(O)CCl)C1=CC(=O)OC1,Non-Toxic
3,C/C=C(\C)C(=O)OC[C@]12C(=O)CCC[C@@H]1[C@@](C)(CCC1=CC(=O)OC1)[C@H](C)CC2=O,Non-Toxic
4,C/C=C(\C)C(=O)O[C@@H](C[C@@]1(C)[C@H](C)C[C@H](OC(C)=O)[C@]2(COC(C)=O)[C@@H]1[C@H](OC(C)=O)CC[C@]21CO1)C1=CC(=O)OC1 [AJUGANIPPONIN A],Non-Toxic
5,C/C=C(\C)C(=O)O[C@@H]1CC[C@]2(CO2)[C@]2(COC(C)=O)[C@@H](OC(C)=O)C[C@@H](C)[C@](C)(C[C@H](OC(C)=O)C3=CC(=O)OC3)[C@@H]12 [AJUGAMARIN A2],Non-Toxic
6,C/C=C(\C)C(=O)O[C@@H]1CC[C@]2(CO2)[C@]2(COC(C)=O)[C@@H](OC(C)=O)C[C@@H](C)[C@](C)(CC(=O)C3=CC(=O)OC3)[C@@H]12,Non-Toxic
7,C/C=C(\C)C(=O)O[C@@H](C[C@@]1(C)[C@H](C)C[C@H](O)[C@]2(C)[C@@H]1CCC[C@H]2C(=O)OC)C1=CC(=O)OC1,Non-Toxic
8,C[C@@H]1C[C@H](O)[C@@]2(COC(=O)c3ccc(C(F)(F)F)cc3)C(=O)CCC[C@@H]2[C@@]1(C)CCC1=CC(=O)OC1,Non-Toxic
9,C/C=C(\C)C(=O)O[C@@H]1CC[C@](O)(CCl)[C@]2(COC(C)=O)[C@@H](OC(C)=O)C[C@@H](C)[C@](C)(C/C=C(/C=O)CC(=O)OC)[C@@H]12,Non-Toxic
10,C/C=C(\C)C(=O)O[C@@H]1CC[C@]2(CO2)[C@]2(COC(C)=O)[C@@H](OC(C)=O)C[C@@H](C)[C@](C)(C[C@H](OC(=O)C(C)CC)C3=CC(=O)OC3)[C@@H]12 (stereo partly specified),Non-Toxic
11,C[C@@H]1C[C@H](O)[C@@]2(COC(=O)c3ccc(F)cc3)C(=O)CCC[C@@H]2[C@@]1(C)CCC1=CC(=O)OC1,Non-Toxic
12,CCC(C)C(=O)O[C@@H]1CC[C@]2(CO2)[C@]2(COC(C)=O)[C@@H](OC(C)=O)C[C@@H](C)[C@](C)(C[C@H](OC(C)=O)C3=CC(=O)OC3)[C@@H]12 (stereo partly specified),Non-Toxic
13,C/C=C(\C)C(=O)O[C@@H]1CC[C@]2(CO2)[C@]2(COC(C)=O)[C@@H](OC(C)=O)C[C@@H](C)[C@](C)(C[C@H](O)C3=CC(=O)OC3)[C@@H]12 [AJUGAMARIN A1],Non-Toxic
14,COC(=O)[C@@H]1CC[C@@H](O)[C@@H]2[C@@](C)(C[C@H](O)C3=CC(=O)OC3)[C@H](C)C[C@H](O)[C@]21C,Non-Toxic
15,C/C=C(\C)C(=O)OC[C@@]12C(=O)C[C@@H](C)[C@](C)(CCC3=CC(=O)OC3)[C@H]1CCC[C@]2(O)CCl,Toxic
16,C/C=C(\C)C(=O)O[C@@H]1CC[C@](O)(CCl)[C@]2(COC(C)=O)[C@@H](OC(C)=O)C[C@@H](C)[C@](C)(C[C@H](O)C3=CC(=O)OC3)[C@@H]12 [AJUGAMARIN A1 CHLOROHYDRIN],Non-Toxic
17,COC(=O)[C@@H]1CCC[C@@H]2[C@@](C)(C[C@@H]3OC(=O)C=C3CO)[C@H](C)C[C@H](O)[C@]21C,Non-Toxic
18,C[C@@H]1C[C@H](O)[C@@]23COC[C@@H]2CCC[C@@H]3[C@@]1(C)CCC1=CC(=O)OC1,Non-Toxic
19,C/C=C(\C)C(=O)OC[C@@]12[C@H](CCC[C@]13CO3)[C@@](C)(CCC1=CC(=O)OC1)[C@H](C)C[C@@H]2O,Non-Toxic
20,C[C@@H]1C[C@H](O)[C@@]2(CO)C(=O)CCC[C@@H]2[C@@]1(C)CCC1=CC(=O)OC1,Non-Toxic

# Biological target: T1, Peroxisome proliferator-activated receptor gamma (Homo sapiens, UniProt P37231)
# T1 sequence (P37231 whole entry): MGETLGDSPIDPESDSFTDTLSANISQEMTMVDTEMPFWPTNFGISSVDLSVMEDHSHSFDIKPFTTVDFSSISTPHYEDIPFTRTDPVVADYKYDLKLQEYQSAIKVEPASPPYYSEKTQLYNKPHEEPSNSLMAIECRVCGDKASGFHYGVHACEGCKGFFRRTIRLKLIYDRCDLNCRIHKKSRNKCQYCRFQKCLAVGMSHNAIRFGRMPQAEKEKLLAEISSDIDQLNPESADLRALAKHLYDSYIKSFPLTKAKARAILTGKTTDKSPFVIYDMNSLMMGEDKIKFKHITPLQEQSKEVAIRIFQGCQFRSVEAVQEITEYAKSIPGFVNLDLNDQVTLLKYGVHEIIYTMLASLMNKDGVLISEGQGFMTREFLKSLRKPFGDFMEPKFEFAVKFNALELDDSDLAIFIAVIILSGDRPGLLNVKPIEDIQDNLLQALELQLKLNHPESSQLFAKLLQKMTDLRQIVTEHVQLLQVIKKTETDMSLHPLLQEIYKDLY
# Test: Antagonist activity at PPAR gamma LBD (203 to 476 residues) (unknown origin) expressed in HEK293T cells co-transfected with pCMV-GAL4-PPARgamma-LBD-SV40-Renilla-luciferase assessed as reduction of rosiglitazone induced PPAR-gamma activation incubated for 24 hrs by dural-luciferase reporter assay
# Type: cell-based
# Details: not given
row,Structure (SMILES),IC50
1,C/C=C(\C)C(=O)OC[C@]12[C@H]3CCC[C@@]1(O)CO[C@@]2(O)C[C@H](C)[C@@]3(C)CCC1=CC(=O)OC1,8.18 µM
2,C/C=C(\C)C(=O)OC[C@]12C(=O)CCC[C@@H]1[C@@](C)(CCC1=CC(=O)OC1)[C@H](C)CC2=O,13.3 µM
3,C/C=C(\C)C(=O)O[C@@H](C[C@@]1(C)[C@H](C)C[C@H](OC(C)=O)[C@]2(COC(C)=O)[C@@H]1[C@H](OC(C)=O)CC[C@]21CO1)C1=CC(=O)OC1 [AJUGANIPPONIN A],11.6 µM
4,C/C=C(\C)C(=O)O[C@@H]1CC[C@]2(CO2)[C@]2(COC(C)=O)[C@@H](OC(C)=O)C[C@@H](C)[C@](C)(CC(=O)C3=CC(=O)OC3)[C@@H]12,> 20 µM
5,C/C=C(\C)C(=O)O[C@@H]1CC[C@](O)(CCl)[C@]2(COC(C)=O)[C@@H](OC(C)=O)C[C@@H](C)[C@](C)(C/C=C(/C=O)CC(=O)OC)[C@@H]12,> 20 µM
6,C[C@@H]1C[C@H](O)[C@@]2(CO)C(=O)CCC[C@@H]2[C@@]1(C)CCC1=CC(=O)OC1,> 20 µM

# Test system: BMDM
# Test: Inhibition of osteoclastogenesis in C57BL/6J mouse Bone marrow macrophage cells assessed as inhibition of RANKL-stimulated osteoclast formation measured after 6 days by tartrate-resistant acid phosphatase (TRAP) staining assay
# Details: 144 h
row,Structure (SMILES),IC50
1,NCCCC(O)(P(=O)(O)O)P(=O)(O)O [ALENDRONIC ACID],4.22 µM
2,O=C(Nc1ccncc1)c1cc([N+](=O)[O-])ccc1Cl,0.067 µM
3,C/C=C(\C)C(=O)OC[C@]12[C@H]3CCC[C@@]1(O)CO[C@@]2(O)C[C@H](C)[C@@]3(C)CCC1=CC(=O)OC1,1.04 µM
4,C/C=C(\C)C(=O)OC[C@]12C(=O)CCC[C@@H]1[C@@](C)(CCC1=CC(=O)OC1)[C@H](C)CC2=O,2.71 µM
5,C/C=C(\C)C(=O)O[C@@H]1CC[C@]2(CO2)[C@]2(COC(C)=O)[C@@H](OC(C)=O)C[C@@H](C)[C@](C)(CC(=O)C3=CC(=O)OC3)[C@@H]12,> 10 µM
6,C/C=C(\C)C(=O)O[C@@H](C[C@@]1(C)[C@H](C)C[C@H](O)[C@]2(C)[C@@H]1CCC[C@H]2C(=O)OC)C1=CC(=O)OC1,1.42 µM
7,C/C=C(\C)C(=O)O[C@@H]1CC[C@](O)(CCl)[C@]2(COC(C)=O)[C@@H](OC(C)=O)C[C@@H](C)[C@](C)(C/C=C(/C=O)CC(=O)OC)[C@@H]12,> 10 µM
8,C[C@@H]1C[C@H](O)[C@@]2(CO)C(=O)CCC[C@@H]2[C@@]1(C)CCC1=CC(=O)OC1,> 10 µM

# Test system: BMDM
# Test: cells
# Details: Mus musculus, 144 h, read-out: INH
# Description: Inhibition of osteoclastogenesis in C57BL/6J mouse Bone marrow macrophage cells assessed as inhibition of RANKL-stimulated osteoclast formation at 10 uM measured after 6 days by tartrate-resistant acid phosphatase (TRAP) staining assay relative to control
row,Structure (SMILES),inhibition at 10 µM
1,NCCCC(O)(P(=O)(O)O)P(=O)(O)O [ALENDRONIC ACID],> 50%
2,C/C=C(\C)C(=O)O[C@@H](C[C@@]1(C)[C@H](C)C[C@H](O)[C@]2(C)[C@@H]1CCC[C@H]2C(=O)OC)C1=CC(=O)OC1,> 50%
